In the assay the target is T1, human Y5 receptor (hNPY-5) (Homo sapiens, UniProt Q15761).
T1 construct: expressed in transfected cells; host or cells: mouse fibroblast LM(tk-) cells, e.g. L-hY5-7 (ATCC CRL-11995)
T1 sequence (Q15761 1-445): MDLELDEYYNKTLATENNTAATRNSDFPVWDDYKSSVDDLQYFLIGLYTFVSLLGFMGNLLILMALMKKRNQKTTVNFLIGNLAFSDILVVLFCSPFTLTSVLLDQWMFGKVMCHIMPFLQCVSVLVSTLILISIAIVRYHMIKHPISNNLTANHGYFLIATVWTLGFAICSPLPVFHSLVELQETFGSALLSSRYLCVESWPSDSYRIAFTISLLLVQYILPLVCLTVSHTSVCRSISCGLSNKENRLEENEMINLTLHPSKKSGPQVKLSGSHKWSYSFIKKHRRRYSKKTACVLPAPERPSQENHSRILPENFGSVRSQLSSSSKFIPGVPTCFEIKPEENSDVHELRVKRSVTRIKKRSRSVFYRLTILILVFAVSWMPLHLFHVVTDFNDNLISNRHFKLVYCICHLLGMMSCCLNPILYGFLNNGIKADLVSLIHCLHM
The assay is described as follows: Radioligand binding to membranes, cloned human Y5 receptor. The conditions noted are these: cloned human NPY Y5 receptor, radioligand competition binding; Tables 1-3; read-out: Ki, nM hNPY-5. As to the method:
Binding of the compounds of the present invention to human Y1, Y2, Y4, and Y5 receptors was evaluated using stably transfected 293 or LM(tk-) cells as described above. Stably transfected cell lines which may be used for binding assays include, for example, for the human Y1 receptor, 293-hY1-5 (deposited Jun. 4, 1996, under ATCC Accession No. CRL-12121), for the human Y2 receptor, 293-hY2-10 (deposited Jan. 27, 1994, under ATCC Accession No. CRL-11537), for the human Y4 receptor, L-hY4-3 (deposited Jan. 11, 1995, under ATCC Accession No. CRL-11779), and for human Y5 receptor, L-hY5-7 (deposited Nov. 15, 1995, under ATCC Accession No. CRL-11995). These cell lines were deposited with the American Type Culture Collection (ATCC), 10801 University Blvd., Manassas, Va. 20110-2209, U.S.A. under the provisions of the Budapest Treaty for the International Recognition of the Deposit of Microorganisms for the Purposes of Patent Procedure.
Membranes were harvested from COS-7 cells 48 hours after transient transfection. Adherent cells were washed twice in ice-cold phosphate buffered saline (138 mM NaCl, 8.1 mM Na2HPO4, 2.5 mM KCl, 1.2 mM KH2PO4, 0.9 mM CaCl2, 0.5 mM MgCl2, pH 7.4) and lysed by sonication in ice-cold sonication buffer (20 mM Tris-HCl, 5 mM EDTA, pH 7.7). Large particles and debris were cleared by low speed centrifugation (200×g, 5 min, 4° C.). Membranes were collected from the supernatant fraction by centrifugation (32,000×g, 18 min, 4° C.), washed with ice-cold hypotonic buffer, and collected again by centrifugation (32,000×g, 18 min, 4° C.). The final membrane pellet was resuspended by sonication into a small volume of ice-cold binding buffer (˜1 ml for every 5 plates: 10 mM NaCl, 20 mM HEPES, 0.22 mM KH2PO4, 1.26 mM CaCl2, 0.81 mM MgSO4, pH 7.4). Protein concentration was measured by the Bradford method (Bradford, 1976) using Bio-Rad Reagent, with bovine serum albumin as a standard. Membranes were held on ice for up to one hour and used fresh, or flash-frozen and stored in liquid nitrogen.
Membranes were prepared similarly from 293, LM(tk-), and NIH-3T3 cells. To prepare membranes from baculovirus infected cells, 2×10^7 Sf21 cells were grown in 150 mm tissue culture dishes and infected with a high-titer stock of hY5BB3. Cells were incubated for 2-4 days at 27° C., no CO2 before harvesting and membrane preparation as described above.
Membrane suspensions were diluted in binding buffer supplemented with 0.1% bovine serum albumin to yield an optimal membrane protein concentration so that ^125I-PYY (or alternative radioligand such as ^125I-NPY, ^125I-PYY3-36, or ^125I-[Leu^31Pro^34]PYY) bound by membranes in the assay was less than 10% of ^125I-PYY (or alternative radioligand) delivered to the sample (100,000 dpm/sample=0.08 nM for competition binding assays). ^125I-PYY (or alternative radioligand) and peptide competitors were also diluted to desired concentrations in supplemented binding buffer. Individual samples were then prepared in 96-well polypropylene microtiter plates by mixing 125I-PYY (25 μL) (or alternative radioligand), competing peptides or supplemented binding buffer (25 μL), and finally, membrane suspensions (200 μL). Samples were incubated in a 30° C. water bath with constant shaking for 120 min. Incubations were terminated by filtration over Whatman GF/C filters (pre-coated with 1% polyethyleneimine and air-dried before use), followed by washing with 5 mL of ice-cold binding buffer. Filter-trapped membranes were impregnated with MeltiLex solid scintillant (Wallac, Turku, Finland) and counted for ^125I in a Wallac Beta-Plate Reader. Alternatively, incubations were carried out in GF/C filter plates (pre-coated with 1% polyethyleneimine and air-dried before use), followed by vacuum filtration and three washes of 300 μL of ice-cold binding buffer. 50 μL of UltimaGold (Packard) scintillant were added and counted for ^125I in a Wallac MicroBeta Trilux. […]
For orientation: In a radioligand displacement assay an active substance lowers the binding of a labelled ligand.

Structures can show the parent of a compound that is named as a salt.

As usually defined, the Ki is the dissociation constant of the complex between target and ligand, obtained from inhibition or displacement. Regarding `COCCN(C=O)[C@H]1CC[C@H](CNc2nc3c(s2)CCOc2ccccc2-3)CC1` [Example 86, N-{4-[(4,5-dihydrobenzo[2,3]oxepino[4,5-d][1,3]thiazol-2-ylamino)methyl]cyclohexyl}-N-(2-methoxyethyl)formamide], the Ki is 68 nM.

For the compound `CCN(C=O)[C@H]1CC[C@H](CNc2nc3c(s2)CCOc2ccccc2-3)CC1` [Example 87, trans-1-Aza-2-(4-(n-(ethyl) formamido)cyclohexyl)methyl-amino-4,5-dihydro-6-oxa-3-thia-benzo[e]azulene], the Ki turned out to be 86 nM.

On to `CCN(CC)S(=O)(=O)NCCCCCCNc1nc2c(s1)CCSc1ccccc1-2` [Example 101, N′-[6-(4,5-Dihydrobenzo[2,3]thiepino[4,5-d][1,3]thiazol-2-ylamino)hexyl]-N,N-diethylsulfamide], for which the Ki was found to be 5.9 nM.

`CS(=O)(=O)NC[C@H]1CC[C@H](Nc2nc(-c3ccccc3O)cs2)CC1` [Example 95, trans-4-(2-Hydroxy)phenyl-2-(4-methylsulfonylamino-methyl)-cyclohexylaminothiazole]: the Ki came to 106 nM.

For the compound `COc1cccc2c1OCCc1sc(NC[C@H]3CC[C@H](NS(C)(=O)=O)CC3)nc1-2` [Example 65, trans-N2-(4-Methylsulfonylamino)cyclohexylmethyl-7-methoxy-4,5-dihydro-benzo[2,3]oxepino[4,5-d][1,3]-thiazol-2-amine hydrochloride], the Ki turned out to be 11.6 nM.

For `O=S(=O)(NC[C@H]1CC[C@H](Nc2nc3c(s2)CCCc2ccc(F)cc2-3)CC1)c1cccnc1` [Example 59, trans-1-Aza-9-fluoro-4,5-dihydro-2-(4-(3-pyridyl)-sulfonylaminomethyl)cyclohexylamino-3-thia-benzo[e]-azulene], the Ki is 2.3 nM.

For the compound `O=S(=O)(NC[C@H]1CC[C@H](Nc2nc3c(s2)CCCc2ccc(F)cc2-3)CC1)N1CCOCC1` [Example 76, trans-1-Aza-9-fluoro-4,5-dihydro-2-(4-(4-morpholinyl)-sulfonylaminomethyl)cyclohexylamino-3-thia-benzo[e]azulene], the Ki came to 4.1 nM.

Consider `CCCN(C=O)[C@H]1CC[C@H](CNc2nc3c(s2)CCOc2ccccc2-3)CC1` [Example 88, N-{4-[(4,5-Dihydrobenzo[2,3]oxepino[4,5-d][1,3]-thiazol-2-ylamino)methyl]cyclohexyl}-N-propyl-formamide], for which the Ki is 36 nM.

For the compound `CC(C)N(C=O)C[C@H]1CC[C@H](Nc2nc3c(s2)CCCc2ccc(F)cc2-3)CC1` [Example 83, trans-1-Aza-9-fluoro-4,5-dihydro-2-(4-(N-isopropyl-formamido)methyl)cyclohexylamino-3-thia-benzo[e]-azulene], the Ki turned out to be 12 nM.

For `COc1ccc2c(c1)CCCc1sc(NC[C@H]3CC[C@H](NS(C)(=O)=O)CC3)nc1-2` [Example 71, trans-1-Aza-4,5-dihydro-8-methoxy-2-(4-methylsulfonyl-amino)cyclohexylmethylamino-3-thia-benzo[e]azulene], the Ki turned out to be 2.5 nM.

`CC(C)S(=O)(=O)NCCOCCNc1nc2c(s1)CCCc1ccc(F)cc1-2` [Example 69, 1-Aza-9-fluoro-4,5-dihydro-2-(2-(2-isopropyl-sulfonylamino)-ethoxy)ethylamino-3-thia-benzo[e]-azulene]: the Ki worked out at 4.1 nM.

In the case of `COP(=O)(N[C@H]1CC[C@H](CNc2nc3c(s2)CCCc2ccc(F)cc2-3)CC1)OC` [Example 67, trans-N2-(4-Dimethylphosphonylamino)cyclohexylmethyl-9-fluoro-5,6-dihydro-4H-benzo[6,7]cyclohepta[d][1,3]-thiazol-2-amine], the Ki is 5.5 nM.

Consider `COCC(=O)NCc1ccc(Nc2nc3c(s2)CCCc2ccc(F)cc2-3)cc1` [Example 89, N1-{4-[(9-fluoro-5,6-dihydro-4H-benzo[6,7]cyclohepta-[d][1,3]thiazol-2-yl)amino]benzyl}-2-methoxyacetamide], for which the Ki was 9.2 nM.

Turning to `CS(=O)(=O)NCC1CCC(Nc2nc3c(s2)COc2ccccc2-3)CC1` (centres unmarked) [Example 70, 2-(4-Methylsulfonylaminomethyl)cyclohexylamino-4H-chromeno[4,3-d]thiazole], the Ki amounted to 21 nM.

For `CN(C)S(=O)(=O)NC[C@H]1CC[C@H](CNc2nc3c(s2)CCSc2ccc(F)cc2-3)CC1` [Example 106], the Ki stood at 2.6 nM.

Consider `COc1ccc(S(=O)(=O)N[C@H]2CC[C@H](Nc3nc4c(s3)CCCc3ccc(F)cc3-4)CC2)cc1` [Example 36, trans-1-Aza-9-fluoro-4,5-dihydro-2-(4-(4-methoxy-phenyl)sulfonylamino)cyclohexylamino-3-thia-benzo[e]-azulene], for which the Ki is 60 nM.

For `COc1ccccc1-c1csc(N[C@H]2CC[C@H](CN(C=O)C(C)C)CC2)n1` [Example 96, trans-2-(4-(N-Isopropyl)formamidomethyl)cyclohexyl-amino-4-(2-methoxy)phenylthiazole hydrogen chloride], the Ki is 56 nM.

With `CC(C)(C)OC(=O)NC[C@H]1CC[C@H](Nc2nc3c(s2)CCSc2ccccc2-3)CC1` [Example 100, tert-Butyl N-{[4-(4,5-Dihydrobenzo[2,3]thiepino[4,5-d][1,3]thiazol-2-ylamino)cyclohexyl]methyl}carbamate], the Ki turned out to be 24 nM.

`O=S(=O)(NCCCCNc1nc2c(s1)CCCc1ccc(F)cc1-2)c1cccnc1` [Example 56, 1-Aza-9-fluoro-4,5-dihydro-2-(4-(3-pyridyl)sulfonyl-amino)butylamino-3-thia-benzo[e]azulene]: the inhibitory constant (Ki) stood at 26 nM.

As to `O=S(=O)(NC[C@H]1CC[C@H](Nc2nc3c(s2)CCCc2ccc(F)cc2-3)CC1)C(F)(F)F` [Example 41, trans-1-Aza-9-fluoro-2-{4-trifluoromethylsulfonyl-aminomethyl}cyclohexylamino-4,5-dihydro-3-thiabenzo[e]-azulene], the Ki is 30 nM.

Turning to `CCC(=O)NC[C@H]1CC[C@H](Nc2nc3c(s2)CCCc2ccc(F)cc2-3)CC1` [Example 75, trans-1-Aza-4,5-dihydro-2-(4-ethylcarbonylamino-methyl)-cyclohexylamino-9-fluoro-3-thia-benzo[e]-azulene], the Ki is 36 nM.

In the case of `CC(C)S(=O)(=O)NCCCCCNc1nc2c(s1)CCCc1ccc(F)cc1-2` [Example 13, 1-Aza-9-fluoro-4,5-dihydro-2-(5-isopropyl-sulfonylamino)-pentylamino-3-thia-benzo[e]azulene], the Ki turned out to be 132 nM.

Consider `COCCN(C=O)C[C@H]1CC[C@H](Nc2nc(-c3ccccc3OC)cs2)CC1` [Example 97], for which the Ki amounted to 335 nM.

These data come from US7273880B2, “Selective NPY (Y5) antagonists” (H. Lunbeck A/S, priority 1999, dated 2007).
